Where a name gives a salt, the structure may show the parent alone.

The first test deals with SARS-CoV-2 Mac1 (Severe acute respiratory syndrome coronavirus 2, UniProt P0DTD1). Put plainly: biochemical. Particulars: 100 µM; inhibitor.
Usually %inhibition stands for the percentage by which the read-out fell short of the control. Lower therefore signals a weak effect. Take `COc1ccc(C[C@@H](C)NC[C@H](O)c2ccc(O)c(NC=O)c2)cc1` (racemic) [Formoterol Hemifumarate]: the “%inhibition” value came out at 0%.
Still for that read-out and setting: to `Nc1ccncc1` [4-Aminopyridine] belongs 5.817%.

Staying with this test, now noted: read-out: %inhibition.
Usually inhibition stands for the drop in the measured response relative to a control, in per cent. On to `COCC(=O)Nc1c(I)c(C(=O)NCC(O)CO)c(I)c(C(=O)N(C)CC(O)CO)c1I` (mixture of isomers) [Iopromide], for which the inhibition at 100 µM stood at 0%.
`CCC(C)n1ncn(-c2ccc(N3CCN(c4ccc(OC[C@H]5CO[C@](Cn6cncn6)(c6ccc(Cl)cc6Cl)O5)cc4)CC3)cc2)c1=O` (mixture of isomers) [Itraconazole]: the inhibition at 100 µM was 1.14%.
In the case of `OC[C@H]1O[C@@H](O[C@@H]2[C@@H](CO)OC(O)(CO)[C@H]2O)[C@H](O)[C@@H](O)[C@H]1O` (mixture of isomers) [Lactulose], the inhibition at 100 µM is 5.37%.
On the same count and under the same terms, as for `CCCCC(C)(O)C/C=C/[C@H]1[C@H](O)CC(=O)[C@@H]1CCCCCCC(=O)OC` (mixture of isomers) [Misoprostol], the figure is 0%; as for `CC(C)(C)NCC(O)COc1cccc2c1C[C@H](O)[C@H](O)C2` (mixture of isomers) [Nadolol], 21.5%; as for `NCC(O)c1ccc(O)cc1` (racemic) [(+,-)-Octopamine HCl], 0%.
Same read-out and setting: as for `CN1C[C@@H]2c3ccccc3Oc3ccc(Cl)cc3[C@H]2C1` (racemic) [Asenapine maleate], the figure is 0%; as for `COC(=O)C1=C(C)NC(C)=C(C(=O)O[C@@H]2CCCN(Cc3ccccc3)C2)[C@@H]1c1cccc([N+](=O)[O-])c1` (racemic) [Benidipine HCl], 4.77%; as for `C[N+](C)(C)CC(O)CC(=O)[O-]` (racemic) [DL-Carnitine HCl], 0%.
Consider `NC(=O)CCC(N)C(=O)O` (racemic) [DL-Glutamine], for which the inhibition at 100 µM worked out at 0%.
Consider `CC(C)(CO)C(O)C(=O)NCCCO` (racemic) [DL-Panthenol], for which the inhibition at 100 µM turned out to be 0%.
Still for that read-out and setting: to `CC(C)n1c(/C=C/[C@@H](O)C[C@@H](O)CC(=O)O)c(-c2ccc(F)cc2)c2ccccc21` (racemic) [Fluvastatin Sodium] belongs 30%; to `CC(=O)N1CCN(c2ccc(OC[C@@H]3CO[C@@](Cn4ccnc4)(c4ccc(Cl)cc4Cl)O3)cc2)CC1` (racemic) [Ketoconazole], 19.1%.
On to `CCN(CC)C(=O)[C@]1(c2ccccc2)C[C@@H]1CN` (racemic) [Milnacipran HCl], for which the inhibition at 100 µM is 0%.
On the same count and under the same terms, to `CCOc1ccccc1O[C@H](c1ccccc1)[C@H]1CNCCO1` (racemic) [Reboxetine mesylate] belongs 0%; to `C[C@@H](NCCc1ccc(O)cc1)[C@@H](O)c1ccc(O)cc1` (racemic) [Ritodrine HCl], 33.2%; to `CC(C)N1CCN(c2ccc(OC[C@H]3CO[C@](Cn4cncn4)(c4ccc(Cl)cc4Cl)O3)cc2)CC1` (racemic) [Terconazole], 4.88%.
With `O=C(O)CCCC[C@@H]1CCSS1` (racemic) [Thioctic acid], the inhibition at 100 µM stood at 22.2%.
The same measure, in the same setting: to `Cc1ccc(S(=O)(=O)NC(=O)NN2CC3CCC[C@@H]3C2)cc1` (stereo in doubt) [Gliclazide] belongs 9.52%; to `CC(=C(CCOC(=O)C(C)C)SSC(CCOC(=O)C(C)C)=C(C)N(C=O)Cc1cnc(C)nc1N)N(C=O)Cc1cnc(C)nc1N` (stereo in doubt) [Sulbutiamine], 12.8%; to `COc1ccc(C(=O)c2ccccc2O)c(O)c1` [2,2′-Dihydroxy-4-methoxybenzophenone], 8.7%.
Still for that read-out and setting: to `CC1(C)OC(=O)NC1=O` [5,5-Dimethyloxazolidine-2,4-dione] belongs 0.163%.
Regarding `NCC(=O)CCC(=O)O` [5-Aminolevulinic acid HCl], the inhibition at 100 µM is 7.12%.
On the same count and under the same terms, as for `N[C@@H](Cc1c[nH]c2ccc(O)cc12)C(=O)O` [5-hydroxytryptophan (5-HTP)], the figure is 0%; as for `S=c1nc[nH]c2nc[nH]c12` [6-Mercaptopurine (6-MP) Monohydrate], 4.11%.
Consider `Nc1c2ccccc2nc2ccccc12` [9-Aminoacridine], for which the inhibition at 100 µM worked out at 0.915%.
As for `CC1(C)[C@@H]2CC[C@@]1(C)C(=O)C2` [(+)-Camphor], the inhibition at 100 µM was determined as 0%.
The same measure, in the same setting: as for `C/C=C1\[C@H]2C=C(C)C[C@]1(N)c1ccc(=O)[nH]c1C2` [(-)-Huperzine A (HupA)], the figure is 0%; as for `CC(C)[C@@H]1CC[C@@H](C)C[C@H]1O` [(-)-Menthol], 0%; as for `CC(C)NC[C@@H](O)COc1ccc(CC(N)=O)cc1` [(R)-(+)-Atenolol HCl], 9.19%.
`NC[C@H](CC(=O)O)c1ccc(Cl)cc1` [(R)-baclofen]: the inhibition at 100 µM is 0%.
On the same count and under the same terms, to `C[C@H](Oc1cc(-c2cnn(C3CCNCC3)c2)cnc1N)c1c(Cl)ccc(F)c1Cl` [(S)-crizotinib] belongs 4.9%; to `NC(=O)c1ncn([C@@H]2O[C@H](CO)[C@@H](O)[C@H]2O)c1N` [AICAR (Acadesine)], 14.6%; to `Nc1nc(NC2CC2)c2ncn([C@H]3C=C[C@@H](CO)C3)c2n1` [Abacavir sulfate], 0%.
Still for that read-out and setting: as for `CCN1CCN(Cc2ccc(Nc3ncc(F)c(-c4cc(F)c5nc(C)n(C(C)C)c5c4)n3)nc2)CC1` [Abemaciclib], the figure is 4.16%; as for `CC#CC(=O)N1CCC[C@H]1c1nc(-c2ccc(C(=O)Nc3ccccn3)cc2)c2c(N)nccn12` [Acalabrutinib (ACP-196)], 9.75%; as for `CC(=O)NCCCS(=O)(=O)O` [Acamprosate Calcium], 0%.
The same measure, in the same setting: as for `C[C@H]1O[C@H](O[C@H]2[C@H](O)[C@@H](O)[C@@H](O[C@H]3[C@H](O)[C@@H](O)C(O)O[C@@H]3CO)O[C@@H]2CO)[C@H](O)[C@@H](O)[C@@H]1N[C@H]1C=C(CO)[C@@H](O)[C@H](O)[C@H]1O` (stereo partly shown) [Acarbose], the figure is 16%; as for `CCCC(=O)Nc1ccc(OCC(O)CNC(C)C)c(C(C)=O)c1` (stereo not shown) [Acebutolol HCl], 0%; as for `O=C(O)COC(=O)Cc1ccccc1Nc1c(Cl)cccc1Cl` [Aceclofenac], 0%.
Regarding `CC(=O)N[C@@H](CCC(N)=O)C(=O)O` [Aceglutamide], the inhibition at 100 µM is 0%.
On the same count and under the same terms, as for `COc1ccc2c(c1)c(CC(=O)OCC(=O)O)c(C)n2C(=O)c1ccc(Cl)cc1` [Acemetacin], the figure is 8.64%; as for `CC(=O)Nc1ccccc1` [Acetanilide], 30.4%.
Turning to `CC(=O)c1ccc(S(=O)(=O)NC(=O)NC2CCCCC2)cc1` [Acetohexamide], the inhibition at 100 µM is 17.8%.
Turning to `CC(=O)NO` [Acetohydroxamic acid], the inhibition at 100 µM worked out at 0%.
Take `CC(=O)OCC[N+](C)(C)C` [Acetylcholine iodide]: the inhibition at 100 µM was found to be 0%.
Still for that read-out and setting: as for `CC(=O)N[C@@H](CS)C(=O)O` [Acetylcysteine], the figure is 0%; as for `CC(=O)NC(CC(C)C)C(=O)O` (stereo not shown) [Acetylleucine], 1.78%.
`Nc1nc2c(ncn2COCCO)c(=O)[nH]1` [Aciclovir]: the inhibition at 100 µM stood at 19.8%.
The same measure, in the same setting: to `Cc1cnc(C(=O)O)c[n+]1[O-]` [Acipimox] belongs 14%.

Source of the values: doi:10.1101/2021.10.07.463234v2 (biorxiv, 2021).
